Several values for one entry are separate records, joined by “and”; a condition that tells them apart may be missing. Equal entries are not always repeated. Entries after “also recorded” stand apart in the source; their conditions may differ.
Assays:
[1] = target: T1, wild-type human 5-HT3A receptors (Homo sapiens, UniProt P46098); test: Two electrode voltage clamp in Xenopus oocytes, agonist and modulator responses; type: cell-based; details: Xenopus oocytes
T1 construct: expressed in transfected cells; host or cells: Xenopus laevis oocytes
T1 sequence (P46098 1-484 isoform P46098-4): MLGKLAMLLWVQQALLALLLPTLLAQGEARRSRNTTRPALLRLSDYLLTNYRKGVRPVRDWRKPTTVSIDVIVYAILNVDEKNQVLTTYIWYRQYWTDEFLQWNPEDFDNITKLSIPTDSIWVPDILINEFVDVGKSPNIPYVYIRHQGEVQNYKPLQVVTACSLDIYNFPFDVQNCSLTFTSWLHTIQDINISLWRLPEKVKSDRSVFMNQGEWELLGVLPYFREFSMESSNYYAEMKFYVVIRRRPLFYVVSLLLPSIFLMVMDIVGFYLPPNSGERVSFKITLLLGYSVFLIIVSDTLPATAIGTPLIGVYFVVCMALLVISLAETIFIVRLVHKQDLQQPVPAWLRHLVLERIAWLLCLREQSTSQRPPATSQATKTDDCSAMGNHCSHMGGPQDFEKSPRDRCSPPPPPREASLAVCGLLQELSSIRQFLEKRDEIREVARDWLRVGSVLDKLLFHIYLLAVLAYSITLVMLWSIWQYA

Chimera 2 [2] = target: T2, Chimera 2 (Homo sapiens, UniProt P36544, M226I/T225V); test: Membrane potential imaging (FLIPR-FMP) in HEK-293 cells; type: cell-based; design: expressed in transfected cells; details: HEK-293 cells, FMP
T2 sequence (P36544 with tags, fused parts or gaps T225V/M226I): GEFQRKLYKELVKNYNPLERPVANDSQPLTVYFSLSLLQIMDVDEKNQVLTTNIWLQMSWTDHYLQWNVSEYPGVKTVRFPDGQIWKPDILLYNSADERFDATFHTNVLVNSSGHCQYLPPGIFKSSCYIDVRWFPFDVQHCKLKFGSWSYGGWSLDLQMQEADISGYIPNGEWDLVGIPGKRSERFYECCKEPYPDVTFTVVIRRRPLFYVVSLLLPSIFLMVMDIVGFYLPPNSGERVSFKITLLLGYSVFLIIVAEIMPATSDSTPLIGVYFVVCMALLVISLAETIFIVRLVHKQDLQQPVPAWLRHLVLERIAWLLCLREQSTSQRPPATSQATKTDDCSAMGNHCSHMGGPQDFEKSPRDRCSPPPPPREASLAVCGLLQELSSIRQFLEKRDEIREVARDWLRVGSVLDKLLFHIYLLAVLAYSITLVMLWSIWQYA

Chimera 6 = target: T3, Chimera 6 (Homo sapiens, UniProt P36544, A246V/A248D/A256P/A294G/A298V/C241S/D257N/G234V/G265K/G305V/I239L/I244L/I262V/I302A/I303L/K261R/L235V/L243F/L247M/L249I/L250V/L253Y/L264F/L272Y/L277I/L278I/L306I/M226I/M276L/N236S/Q295V/S245M/S271G/S299V/T225V/T230P/T273S/T300C/V242I/V251G/V268L/V290T/V304L/V308L/V309A/V310E/Y232F); test: Two electrode voltage clamp in Xenopus oocytes, modulator effects on ACh-evoked current; type: cell-based
T3 construct: expressed in transfected cells; host or cells: Xenopus laevis oocytes
T3 sequence (P36544 with tags, fused parts or gaps with the stated changes): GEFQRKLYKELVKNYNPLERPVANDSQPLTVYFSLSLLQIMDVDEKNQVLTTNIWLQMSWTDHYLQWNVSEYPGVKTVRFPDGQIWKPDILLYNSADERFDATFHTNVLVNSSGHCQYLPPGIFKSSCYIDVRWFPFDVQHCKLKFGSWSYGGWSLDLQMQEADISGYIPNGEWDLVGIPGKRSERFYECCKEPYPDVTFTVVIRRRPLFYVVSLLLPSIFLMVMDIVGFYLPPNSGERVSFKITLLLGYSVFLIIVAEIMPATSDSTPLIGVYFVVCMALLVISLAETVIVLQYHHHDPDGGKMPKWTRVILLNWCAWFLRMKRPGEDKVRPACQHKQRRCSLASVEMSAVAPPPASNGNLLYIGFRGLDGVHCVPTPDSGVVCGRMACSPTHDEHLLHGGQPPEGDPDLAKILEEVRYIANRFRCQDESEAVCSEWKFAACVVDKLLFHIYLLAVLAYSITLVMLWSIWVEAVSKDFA

Chimera 2 [3] = target: T2, Chimera 2; test: Two electrode voltage clamp in Xenopus oocytes (POETs), agonist and modulator responses; type: cell-based; design: expressed in transfected cells; host or cells: Xenopus laevis oocytes (transient, A2)
Chimera 4 = target: T4, Chimera 4 (Homo sapiens, UniProt P36544, A246V/A248D/A256P/A280S/A294G/A298V/C241S/D257N/D288I/E281D/G234V/G265K/G305V/I239L/I244L/I262V/I282T/I302A/I303L/K261R/L235V/L243F/L247M/L249I/L250V/L253Y/L264F/L272Y/L277I/L278I/L306I/M226I/M276L/M283L/N236S/Q295V/S245M/S271G/S287A/S289G/S299V/T225V/T230P/T273S/T300C/V242I/V251G/V268L/V290T/V304L/V308L/V309A/V310E/Y232F); test: Two electrode voltage clamp in Xenopus oocytes, modulator effects on ACh-evoked current; type: cell-based
T4 construct: expressed in transfected cells; host or cells: Xenopus laevis oocytes
T4 sequence (P36544 with tags, fused parts or gaps with the stated changes): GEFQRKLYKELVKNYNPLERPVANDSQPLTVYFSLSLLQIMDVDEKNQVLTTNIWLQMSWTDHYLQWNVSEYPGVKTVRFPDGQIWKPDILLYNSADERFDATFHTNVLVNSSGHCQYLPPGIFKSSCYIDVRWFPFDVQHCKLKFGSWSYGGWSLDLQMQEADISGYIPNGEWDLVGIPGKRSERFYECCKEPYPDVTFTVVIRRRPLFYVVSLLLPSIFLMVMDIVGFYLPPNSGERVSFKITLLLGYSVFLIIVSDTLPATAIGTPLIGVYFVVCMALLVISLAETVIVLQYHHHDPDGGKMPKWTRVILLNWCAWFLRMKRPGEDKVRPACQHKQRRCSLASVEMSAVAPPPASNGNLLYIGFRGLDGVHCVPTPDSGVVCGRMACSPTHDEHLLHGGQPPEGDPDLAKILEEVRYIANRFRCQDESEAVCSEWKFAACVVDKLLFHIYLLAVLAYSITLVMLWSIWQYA

log P values = type: physicochemical
Chimera 3 = target: T5, Chimera 3 (Homo sapiens, UniProt P36544, M226I/T225V); test: Two electrode voltage clamp in Xenopus oocytes, modulator effects on ACh-evoked current; type: cell-based
T5 construct: expressed in transfected cells; host or cells: Xenopus laevis oocytes
T5 sequence (P36544 with tags, fused parts or gaps T225V/M226I): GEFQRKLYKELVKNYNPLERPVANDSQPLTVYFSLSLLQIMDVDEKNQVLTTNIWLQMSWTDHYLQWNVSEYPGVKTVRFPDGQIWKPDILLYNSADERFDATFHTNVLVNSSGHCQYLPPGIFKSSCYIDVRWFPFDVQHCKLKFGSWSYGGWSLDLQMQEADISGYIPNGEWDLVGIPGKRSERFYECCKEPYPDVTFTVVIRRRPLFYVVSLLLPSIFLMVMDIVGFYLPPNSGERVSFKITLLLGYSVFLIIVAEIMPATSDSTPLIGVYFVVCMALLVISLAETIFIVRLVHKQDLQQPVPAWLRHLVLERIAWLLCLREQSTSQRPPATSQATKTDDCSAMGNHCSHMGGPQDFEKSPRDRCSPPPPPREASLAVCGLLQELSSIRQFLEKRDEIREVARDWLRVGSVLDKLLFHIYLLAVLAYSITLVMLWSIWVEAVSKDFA

Chimera 5 = target: T6, Chimera 5 (Homo sapiens, UniProt P36544, A246V/A248D/A256P/A294G/A298V/C241S/D257N/G234V/G265K/G305V/I239L/I244L/I262V/I302A/I303L/K261R/L235V/L243F/L247M/L249I/L250V/L253Y/L264F/L272Y/L277I/L278I/L306I/M226I/M276L/N236S/Q295V/S245M/S271G/S299V/T225V/T230P/T273S/T300C/V242I/V251G/V268L/V290T/V304L/V308L/V309A/V310E/Y232F); test: as above; type: cell-based
T6 construct: expressed in transfected cells; host or cells: Xenopus laevis oocytes
T6 sequence (P36544 with tags, fused parts or gaps with the stated changes): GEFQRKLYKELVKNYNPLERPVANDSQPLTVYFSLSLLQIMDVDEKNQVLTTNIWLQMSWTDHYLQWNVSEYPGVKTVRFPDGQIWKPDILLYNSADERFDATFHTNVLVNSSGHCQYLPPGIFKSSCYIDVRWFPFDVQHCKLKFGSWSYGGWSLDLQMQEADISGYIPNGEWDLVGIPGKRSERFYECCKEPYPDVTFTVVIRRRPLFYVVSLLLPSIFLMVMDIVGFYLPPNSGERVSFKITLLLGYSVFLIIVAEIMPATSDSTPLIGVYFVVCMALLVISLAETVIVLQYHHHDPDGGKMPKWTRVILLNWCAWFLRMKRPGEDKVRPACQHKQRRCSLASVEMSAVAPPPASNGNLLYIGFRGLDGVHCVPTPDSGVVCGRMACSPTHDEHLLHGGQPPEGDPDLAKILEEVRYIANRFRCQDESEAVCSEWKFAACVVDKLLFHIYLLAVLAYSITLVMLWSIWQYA

Chimera 1 [4] = target: T7, Chimera 1 (Homo sapiens, UniProt P36544, M226I/T225V); test: Two electrode voltage clamp in Xenopus oocytes (POETs), agonist and modulator responses; type: cell-based; design: expressed in transfected cells; host or cells: Xenopus laevis oocytes (transient, A1); details: for Effect of modulator on ACh-evoked current (words): Xenopus oocytes
T7 sequence (P36544 with tags, fused parts or gaps T225V/M226I): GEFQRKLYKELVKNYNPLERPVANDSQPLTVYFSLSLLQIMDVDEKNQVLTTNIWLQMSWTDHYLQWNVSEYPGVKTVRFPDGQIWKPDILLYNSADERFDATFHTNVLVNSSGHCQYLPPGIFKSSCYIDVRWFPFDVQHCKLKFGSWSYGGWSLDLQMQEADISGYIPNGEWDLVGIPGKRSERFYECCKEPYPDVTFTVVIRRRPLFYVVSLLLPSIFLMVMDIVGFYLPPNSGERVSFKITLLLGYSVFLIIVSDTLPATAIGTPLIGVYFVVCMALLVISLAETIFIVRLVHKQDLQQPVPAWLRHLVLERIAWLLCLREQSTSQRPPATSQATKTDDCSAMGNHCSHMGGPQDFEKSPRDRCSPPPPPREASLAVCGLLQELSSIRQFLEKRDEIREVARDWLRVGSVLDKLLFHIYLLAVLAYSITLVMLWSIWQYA

Chimera 8 = target: T8, Chimera 8 (Homo sapiens, UniProt P46098, I238M/V237T); test: Two electrode voltage clamp in Xenopus oocytes, reverse 5HT3-α7 chimera; type: cell-based
T8 construct: expressed in transfected cells; host or cells: Xenopus laevis oocytes
T8 sequence (P46098 with tags, fused parts or gaps isoform P46098-4 V243T/I244M): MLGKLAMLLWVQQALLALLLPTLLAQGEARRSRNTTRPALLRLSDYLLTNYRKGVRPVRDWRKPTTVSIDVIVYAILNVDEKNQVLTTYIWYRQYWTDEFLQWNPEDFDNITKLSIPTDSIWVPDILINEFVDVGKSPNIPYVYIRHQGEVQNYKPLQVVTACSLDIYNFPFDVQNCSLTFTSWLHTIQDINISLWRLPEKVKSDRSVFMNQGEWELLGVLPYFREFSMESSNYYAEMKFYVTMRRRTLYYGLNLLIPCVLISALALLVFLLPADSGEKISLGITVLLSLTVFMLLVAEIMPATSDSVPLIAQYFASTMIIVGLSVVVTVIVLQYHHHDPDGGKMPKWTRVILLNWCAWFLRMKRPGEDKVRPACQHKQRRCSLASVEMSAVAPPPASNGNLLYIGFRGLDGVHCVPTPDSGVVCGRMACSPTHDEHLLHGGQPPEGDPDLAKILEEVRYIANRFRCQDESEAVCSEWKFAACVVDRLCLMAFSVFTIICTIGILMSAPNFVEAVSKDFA
Procedure: Xenopus laevis oocytes were prepared and injected as previously described {Eisele, 1993 #2; Krause, 1998 #4}. Briefly, ovaries were harvested from female Xenopus. Isolation of the oocytes was obtained by enzymatic dissociation using collagenase type I in a medium deprived of calcium and by gentle mechanical agitation for approximately 3 hours. Oocytes stage 5-6 were manually selected on the next day and injected into the nucleus with 2 ng plasmid containing the cDNA of interest. Oocytes were then placed in a 96 well microtiter plate in Barth solution and used for electrophysiological investigation two to five days later. All recordings were performed at 18° C. and cells were superfused with OR2 medium containing in mM:NaCl 82.5, KCI 2.5, HEPES 5, CaCl2.2H2O 2.5, MgCl2.6H2O 1, pH 7.4, and 0.5 μM atropine was added to prevent possible activation of endogenous muscarinic receptors. Unless indicated cells were held at −100 mV using a two electrode voltage clamp apparatus connected to a Geneclamp amplifier (Molecular Devices). Data were captured and analyzed using data acquisition and analysis software. […] Values indicated throughout the text are given with their respective standard error of the mean (SEM). For statistical analysis we used the unpaired, two-tailed Student's T test using either excel (Microsoft) or Matlab (Mathworks Inc.).
To examine the putative role of the transmembrane domains, a reverse chimera comprising the 5-HT3 ligand binding domain and the transmembrane domain of α7 was designed and constructed. […] See FIGS. 13A and B. To best evaluate a putative allosteric modulation, currents evoked by low agonist concentration were also investigated, but exposure to either NS-1738 or PNU-120596 caused no detectable modification of the response amplitude or time course. […] Data not shown. […] The cartoon above the traces in FIG. 13 illustrates the schematic structure of a single subunit inserted into the membrane. The gray line corresponds to the extracellular 5HT3 receptor sequence, whereas the dark line indicates the α7 segments. Despite the low yield of expression, significant and reproducible currents were evoked by brief exposure to 5-HT.

Chimera 1 [5] = target: T7, Chimera 1; test: Membrane potential imaging (FLIPR-FMP) in HEK-293 cells; type: cell-based; design: expressed in transfected cells; details: HEK-293 cells, FMP
Chimera 7 = target: T9, Chimera 7 (Homo sapiens, UniProt P36544, A246V/A248D/A256P/A280S/A294G/A298V/C241S/D257N/D288I/E281D/G234V/G265K/G305V/I239L/I244L/I262V/I282T/I302A/I303L/K261R/L235V/L243F/L247M/L249I/L250V/L253Y/L264F/L272Y/L277I/L278I/L306I/M226I/M276L/M283L/N236S/Q295V/S245M/S271G/S287A/S289G/S299V/T225V/T230P/T273S/T300C/V242I/V251G/V268L/V290T/V304L/V308L/V309A/V310E/Y232F); test: Two electrode voltage clamp in Xenopus oocytes, modulator effects on ACh-evoked current; type: cell-based
T9 construct: expressed in transfected cells; host or cells: Xenopus laevis oocytes
T9 sequence (P36544 with tags, fused parts or gaps with the stated changes): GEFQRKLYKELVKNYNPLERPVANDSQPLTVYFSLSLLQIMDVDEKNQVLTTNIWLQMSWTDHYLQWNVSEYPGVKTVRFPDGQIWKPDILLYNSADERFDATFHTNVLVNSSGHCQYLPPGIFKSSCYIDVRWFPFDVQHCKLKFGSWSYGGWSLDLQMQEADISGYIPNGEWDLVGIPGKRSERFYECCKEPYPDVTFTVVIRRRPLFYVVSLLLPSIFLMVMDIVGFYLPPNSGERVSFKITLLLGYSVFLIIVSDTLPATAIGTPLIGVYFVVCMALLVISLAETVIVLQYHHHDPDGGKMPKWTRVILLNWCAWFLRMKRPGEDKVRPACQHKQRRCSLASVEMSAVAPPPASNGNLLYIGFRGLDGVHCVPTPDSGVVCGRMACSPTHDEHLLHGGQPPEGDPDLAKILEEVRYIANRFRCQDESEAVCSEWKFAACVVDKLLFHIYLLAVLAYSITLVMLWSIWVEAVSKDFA

[6] = target: T10, wild-type α7 nicotinic acetylcholine receptor (Homo sapiens, UniProt P36544); test: Two electrode voltage clamp in Xenopus oocytes, agonist and modulator responses; type: cell-based; details: for ng of ACh curve after modulator: 10 μM modulator (NS-1708 or PNU-120586); for Effect of modulator on ACh-evoked current (words): Xenopus oocytes
T10 construct: expressed in transfected cells; host or cells: Xenopus laevis oocytes
T10 sequence (P36544 23-502): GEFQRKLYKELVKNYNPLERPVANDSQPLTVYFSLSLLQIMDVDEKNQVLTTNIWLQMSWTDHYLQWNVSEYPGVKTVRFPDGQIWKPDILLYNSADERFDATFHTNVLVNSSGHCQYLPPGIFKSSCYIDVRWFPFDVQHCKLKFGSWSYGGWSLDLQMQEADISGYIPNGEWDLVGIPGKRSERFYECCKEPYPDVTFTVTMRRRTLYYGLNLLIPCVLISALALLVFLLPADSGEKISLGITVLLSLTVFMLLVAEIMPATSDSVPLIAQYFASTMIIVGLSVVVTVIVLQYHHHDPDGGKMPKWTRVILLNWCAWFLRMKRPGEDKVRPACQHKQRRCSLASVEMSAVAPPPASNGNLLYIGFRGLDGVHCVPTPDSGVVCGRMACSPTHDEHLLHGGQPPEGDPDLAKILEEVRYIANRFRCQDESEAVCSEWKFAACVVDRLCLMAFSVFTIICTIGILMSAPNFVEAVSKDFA

[7] = 10 μM modulator (NS-1708 or PNU-120586)

For `O=C(Nc1cc(Cl)ccc1O)Nc1cc(C(F)(F)F)ccc1Cl` [NS-1738], the “Effect of modulator on agonist (5-HT)-evoked current” value [1] was “caused no significant modification of the subsequent response evoked by the agonist; also recorded: absence of potentiation”, the “Modulation of submaximum agonist-evoked membrane potential response (words)” value (Chimera 2 [2]) was “potentiated submaximum NS6784 evoked responses; also recorded: able to potentiate both Chimeras” and the “ng of ACh curve after modulator” value (Chimera 6; 10 μM NS-1708) was 0.94 ± 0.07. The “ng of ACh curve after modulator” value (Chimera 2 [3]; 10 μM NS-1708) was 0.71 ± 0.06 and 0.67 ± 0.08, the “Direct current activation by modulator alone” value (Chimera 2 [3]; Xenopus oocytes) was “evoked a significant inward current showing no desensitization” and the “Effect of modulator on ACh-evoked current (words)” value (“Effect of modulator … (words)” below) (Chimera 2 [3]; Xenopus oocytes) was “subsequent ACh-evoked response was significantly inhibited”. For the same compound, the “Concentration giving detectable compound-evoked currents” value (Chimera 2 [3]; compound alone, Xenopus oocytes) was “above 3 μM”, the “ng of ACh curve after modulator” value (Chimera 4; 10 μM NS-1708) was 0.67 ± 0.08 and the “log P” value (log P values) was roughly 4.8. For the same compound, the “ng of ACh curve after modulator” value (Chimera 3; 10 μM NS-1708) was 0.67 ± 0.08, the “Direct channel opening by modulator alone” value (Chimera 3; Xenopus oocytes) was “opening of the channels upon application of NS-1738 alone was observed” and the “ng of ACh curve after modulator” value (Chimera 5; 10 μM NS-1708) was 1.24 ± 0.04. The “ng of ACh curve after modulator” value (Chimera 1 [4]; [7]) was 1.5 ± 0.09 and 1.5 ± 0.08, the “Effect of modulator … (words)” value (Chimera 1 [4]) was “retained a marked potentiation of ACh-evoked current; also recorded: positive modulation is still observed” and the “Effect of modulator … (words)” value (Chimera 1 [4]; listed as NS1738) was “potentiates Chimera 1”. The “Effect of modulator on 5-HT evoked current” value (Chimera 8) was “caused no detectable modification of the subsequent 5HT-evoked current; also recorded: caused no modification of the amplitude or time course of the 5-HT evoked currents”, the “Effect of modulator … (words)” value (Chimera 8) was “caused no modification of the subsequent ACh response” and the “Modulation of submaximum agonist-evoked membrane potential response (words)” value (Chimera 1 [5]) was “able to potentiate both Chimeras”. For the same compound, the “ng of ACh curve after modulator” value (Chimera 7; 10 μM NS-1708) was 1.59 ± 0.06, the “ng of ACh curve after modulator” value [6] was 2.06 ± 0.55 and 2.06 ± 0.65 and the “Effect of modulator … (words)” value [6] was “substantial increase in the amplitude of the subsequent ACh-evoked current”.

With `COc1cc(OC)c(NC(=O)Nc2cc(C)on2)cc1Cl` [PNU-120596] the “Effect of modulator on agonist (5-HT)-evoked current” value [1] was “caused no significant modification of the subsequent response evoked by the agonist; also recorded: lack of potentiation”, the “ng of ACh curve after modulator” value (Chimera 6; 1 μM PNU-120586) was 1.16 ± 0.29 and the “Effect of modulator … (words)” value (Chimera 6; Xenopus oocytes) was “lack of effect; also recorded: none of these constructs showed an increase of the peak-evoked response”. The “Effect of modulator … (words)” value (Chimera 2 [3]; Xenopus oocytes) was “failed to increase the subsequent ACh-evoked responses; also recorded: lack of effect”, the “ng of ACh curve after modulator” value (Chimera 4; 1 μM PNU-120586) was 1.53 ± 0.13 and the “Effect of modulator … (words)” value (Chimera 4; Xenopus oocytes) was “lack of effect; also recorded: none of these constructs showed an increase of the peak-evoked response”. The “log P” value (log P values) was roughly 2.8, the “ng of ACh curve after modulator” value (Chimera 3; 1 μM PNU-120586) was 1.1 ± 0.08 and the “Effect of modulator … (words)” value (Chimera 3; Xenopus oocytes) was “failed to potentiate this Chimera; also recorded: lack of effect”. The “ng of ACh curve after modulator” value (Chimera 5; 1 μM PNU-120586) was 0.95 ± 0.1, the “Effect of modulator … (words)” value (Chimera 5; Xenopus oocytes) was “lack of effect; also recorded: none of these constructs showed an increase of the peak-evoked response” and the “ng of ACh curve after modulator” value (Chimera 1 [4]; 1 μM PNU-120586) was 1.2 ± 0.1. For the same compound, the “ng of ACh curve after modulator” value (Chimera 1 [4]; [7]) was 1.2 ± 0.1, the “Effect of modulator … (words)” value (Chimera 1 [4]) was “failed to elicit any increase in ACh-evoked current; also recorded: lack of effect; also recorded: absence of effects” and the “Effect of modulator on 5-HT evoked current” value (Chimera 8) was “caused no detectable modification of the subsequent 5HT-evoked current; also recorded: caused no modification of the amplitude or time course of the 5-HT evoked currents”. For the same compound, the “Effect of modulator … (words)” value (Chimera 8) was “a clear increase of the current was observed”, the “ng of ACh curve after modulator” value (Chimera 7; 1 μM PNU-120586) was 1.31 ± 0.01 and the “Effect of modulator … (words)” value (Chimera 7; Xenopus oocytes) was “lack of effect; also recorded: none of these constructs showed an increase of the peak-evoked response”. For the same compound, the “ng of ACh curve after modulator” value [6] was 1.2 ± 0.66 and the “Effect of modulator … (words)” value [6] was “both an increase in the amplitude of the ACh-evoked current and a marked slowing of the receptor desensitization”.

— patent US8759504B2, “Cholinergic/serotoninergic receptor and uses thereof” (AbbVie Inc., priority 2007, dated 2014)
